# Laboratory results taken from PMC6754346, “Compounds with capacity to quench the tyrosyl radical in Pseudomonas aeruginosa ribonucleotide reductase” (Journal of Biological Inorganic Chemistry, 2019).
# Legend:
# [1] = target: P. aeruginosa RNR active holoenzyme (NrdA/B complex) (Pseudomonas aeruginosa, UniProt Q9I4I1+Q9I4I2); assay: EPR, tyrosyl radical quenching in holoenzyme; type: biochemical; details: 133 µM compound, 12 µM each NrdA and NrdB, 5 mM ATP, 10 mM magnesium acetate, 30 mM DTT, 50 mM Tris pH 7.5; corrected for control decay
# P. aeruginosa RNR active holoenzyme (NrdA/B complex), sequence (Q9I4I1 1-963): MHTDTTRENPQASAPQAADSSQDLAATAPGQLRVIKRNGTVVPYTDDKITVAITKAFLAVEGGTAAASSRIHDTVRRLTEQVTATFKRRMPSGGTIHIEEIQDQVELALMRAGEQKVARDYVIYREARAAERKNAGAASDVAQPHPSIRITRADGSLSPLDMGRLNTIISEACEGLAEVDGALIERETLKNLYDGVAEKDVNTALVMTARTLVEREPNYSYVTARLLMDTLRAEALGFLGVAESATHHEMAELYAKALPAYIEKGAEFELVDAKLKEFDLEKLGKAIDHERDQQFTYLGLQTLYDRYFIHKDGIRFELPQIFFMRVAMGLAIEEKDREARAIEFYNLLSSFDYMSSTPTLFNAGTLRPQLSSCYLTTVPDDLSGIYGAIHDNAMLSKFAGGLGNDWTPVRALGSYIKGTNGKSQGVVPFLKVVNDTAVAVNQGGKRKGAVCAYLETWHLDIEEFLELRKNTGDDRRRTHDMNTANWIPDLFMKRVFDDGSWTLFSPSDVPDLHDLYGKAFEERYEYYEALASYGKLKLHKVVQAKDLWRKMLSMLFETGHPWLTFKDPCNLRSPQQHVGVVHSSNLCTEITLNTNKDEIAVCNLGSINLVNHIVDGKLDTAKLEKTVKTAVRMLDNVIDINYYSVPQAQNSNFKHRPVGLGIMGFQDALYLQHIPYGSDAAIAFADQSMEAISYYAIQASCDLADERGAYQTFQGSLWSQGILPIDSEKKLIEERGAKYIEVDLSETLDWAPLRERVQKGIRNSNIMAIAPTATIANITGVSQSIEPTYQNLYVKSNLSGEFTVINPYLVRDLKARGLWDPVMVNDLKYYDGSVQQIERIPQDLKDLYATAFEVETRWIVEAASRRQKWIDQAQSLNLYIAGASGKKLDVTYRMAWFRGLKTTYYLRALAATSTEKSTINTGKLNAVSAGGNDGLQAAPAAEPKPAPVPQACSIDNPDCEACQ
# P. aeruginosa RNR active holoenzyme (NrdA/B complex), sequence (Q9I4I2 1-415): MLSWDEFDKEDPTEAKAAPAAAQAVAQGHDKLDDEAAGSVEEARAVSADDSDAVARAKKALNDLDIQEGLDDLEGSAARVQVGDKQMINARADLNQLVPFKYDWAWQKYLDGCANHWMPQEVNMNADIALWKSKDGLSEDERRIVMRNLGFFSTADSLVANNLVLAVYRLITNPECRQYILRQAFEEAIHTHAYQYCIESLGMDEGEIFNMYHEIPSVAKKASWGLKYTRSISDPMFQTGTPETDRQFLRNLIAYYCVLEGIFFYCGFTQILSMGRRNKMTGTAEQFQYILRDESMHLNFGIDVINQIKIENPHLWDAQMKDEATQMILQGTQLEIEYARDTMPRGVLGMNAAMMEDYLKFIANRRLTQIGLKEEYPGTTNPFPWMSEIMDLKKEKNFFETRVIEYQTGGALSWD
# From the text: EPR, tyrosyl radical quenching in holoenzyme on P. aeruginosa RNR active holoenzyme (NrdA/B complex)
# [2] = target: T1, NrdB (Pseudomonas aeruginosa, UniProt Q9I4I2); assay: EPR, tyrosyl radical quenching; type: biochemical; details: 133 µM compound, 15 µM Fe-reconstituted NrdB, 50 mM Tris pH 7.5, 1% DMSO, no DTT; corrected for control decay
# T1 construct: homodimer concentrations; apoNrdB reconstituted with Fe2+ for EPR
# T1 sequence (Q9I4I2 1-415): as above
# From the text: EPR, tyrosyl radical quenching on NrdB
SMILES,Tyrosyl radical decay rate [1],Tyrosyl radical decay rate and radical left after 10 min / NrdB only^a [2]
"COc1cc(-c2ccc(Nc3ccccc3C(=O)O)c(OC)c2)ccc1Nc1ccccc1C(=O)O [compound 73735, NSC73735]",0.67 ± 0.01 min⁻¹,
"CCOC(=O)/C=C(/C)Sc1cc(O)c2ccccc2c1O [compound 278631, NSC278631]",,0.40 ± 0.06 min⁻¹
"O=C(Nc1ccc(Cl)c(Cl)c1)Nc1ccccc1O [compound 522131, NSC522131]",,0.35 ± 0.04 min⁻¹
"COc1ccc(C2=NC(=O)NC2c2ccc(OC)cc2)cc1 (stereo not drawn) [compound 26692, NSC26692]",0.18 ± 0.19 min⁻¹,
"CCc1oc2ccccc2c1C(=O)c1cc(Br)c(O)c(Br)c1 [compound 85433, NSC85433]",0.33 ± 0.03 min⁻¹,
"N#Cc1c(C#N)c(O)c2ccccc2c1O [compound 128281, NSC128281]",0.43 ± 0.03 min⁻¹,0.30 ± 0.07 min⁻¹
"CC(=O)c1cc(O)c2ccccc2c1O [compound 111552, NSC111552]",0.43 ± 0.32 min⁻¹,0.19 ± 0.03 min⁻¹
